In brackets after ≈: the same amount, converted by molar mass. Read-outs that look alike come from different tables or passages of the source.
Tests used:
[1] = Protein binding (plasma equilibrium dialysis); format: in vitro ADME; conditions: 5 hours at 37° C.; for fraction unbound at 5 h, 1 μM: read-out: Protein Binding Fraction Bound (converted)
Summary of the method: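 Compound spiked into plasma at 1 μM final (0.2% DMSO) and dialysed against phosphate buffer for 5 hours at 37 °C with shaking. Donor and receiver samples, matrix-matched and acetonitrile-quenched with internal standard, quantified by LC/MS/MS alongside 0-hour plasma samples.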

[2] = Solubility in aqueous solution (deionized, distilled water); format: physicochemical; conditions: 1% DMSO, read-out: Aqueous Solubility H2O
Summary of the method: (§1)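 DMSO stock (10 mM) diluted into 100 mM phosphate buffer pH 7.4, or into deionized distilled water for the aqueous assay, at 1% final DMSO and shaken 1 h at room temperature. After centrifugation, supernatants quantified by LC-MS/MS against a calibration curve with internal standard.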

[3] = target: glycolate oxidase (GOX) in HepaRG-CAR cells (Homo sapiens (Human), UniProt Q9UJM8); experiment: HepaRG-CAR cell-based assay for quantitation of glycolate oxidase inhibition (cellular glycolate flux, GC-MS)
Sequence of glycolate oxidase (GOX) in HepaRG-CAR cells (Q9UJM8 whole entry): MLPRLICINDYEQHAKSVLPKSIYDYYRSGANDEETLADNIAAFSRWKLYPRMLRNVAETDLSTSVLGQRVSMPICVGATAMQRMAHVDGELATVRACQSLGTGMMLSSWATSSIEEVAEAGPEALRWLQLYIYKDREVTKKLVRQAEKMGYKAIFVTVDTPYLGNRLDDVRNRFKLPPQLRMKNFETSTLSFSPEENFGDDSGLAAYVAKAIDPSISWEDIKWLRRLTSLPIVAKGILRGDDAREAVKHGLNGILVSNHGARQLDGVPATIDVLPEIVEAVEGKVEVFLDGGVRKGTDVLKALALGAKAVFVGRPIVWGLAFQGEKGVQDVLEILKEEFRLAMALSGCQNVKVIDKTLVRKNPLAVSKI

[4] = Stability in human plasma; format: in vitro ADME; conditions: for half-life at 2 μM: read-out: Plasma Stability T1/2
Summary of the method: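 Pooled human plasma (pH 7.4-8) at 37° C, test compound spiked from a 0.02 mM solution in phosphate buffer with 0.5% BSA. Samples taken at 0, 5, 15, 30, 45 and 60 min, quenched with acetonitrile containing internal standard, and remaining compound measured by LC/MS.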

[5] = Solubility in phosphate buffered saline (PBS), pH 7.4; format: physicochemical; conditions: phosphate buffered saline pH 7.4, 1% DMSO, 1 hour shaking at room temperature
Summary of the method: as §1

[6] = Metabolic stability in human liver microsomal preparation; format: in vitro ADME; conditions: human liver microsomes, NADPH, 37° C.; for CLint scaled at 1 μM / half-life at 1 μM: pH 7.4; for half-life at 1 μM: read-out: Metabolic Stability t1/2
Summary of the method: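 Compound at 1.5 μM with 0.75 mg/mL human liver microsomes (concentrations before NADPH addition) in 0.1 M potassium phosphate, 1 mM EDTA, pH 7.4 was preincubated 5 min at 37 °C, then started with NADPH. Samples at 0, 5, 15, 30 and 45 min were quenched with acetonitrile/internal standard and analysed by LC/MS.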

[7] = target: recombinant full-length human hydroxyacid oxidase 1 (HAO1), the equivalent of hGOX (Homo sapiens (Human), UniProt Q9UJM8); experiment: In-vitro human glycolate oxidase (hGOX) assay (Amplex red/HRP fluorescence); format: biochemical
Sequence of recombinant full-length human hydroxyacid oxidase 1 (HAO1), the equivalent of hGOX (Q9UJM8 whole entry): as above
Experimental: Biological Activity Assay: In-Vitro Human Glycolate Oxidase (hGOX) Assay
The in-vitro glycolate oxidase assay was performed using recombinant full-length human hydroxyacid oxidase 1 (HAO1), the equivalent of hGOX. […] Purified HAO1 was dissolved in assay buffer consisting of 10 mM NaCl, 110 mM KCl, 2 mM MgCl2, 50 mM HEPES (pH 7.4) and 0.01% Triton™ X-100.

[8] = HepaRG-CAR cells, 500 μM glycolate, 48 hours incubation, read-out: IC50
[9] = phosphate buffer (PBS), aqueous buffer, kinetic from dmso stock

Compound	recovery at 5 h, 1 μM [1] [%]	solubility at 1 h ([2]; kinetic from dmso stock) [µM]	IC50 [3, 8] [nM]	half-life at 2 μM [4] [h]	solubility at 1 h [5, 9] [µM]	CLint scaled at 1 μM [6] [mL/min/kg]	half-life at 1 μM ([6]; 0-45 min) [h]	IC50 [7] [nM]	fraction unbound at 5 h, 1 μM [1]	Protein Binding Recovery ([1]; 1 μM) [%]	solubility at 1 h [2] [µM]	Plasma Stability T1/2 [4] [h]	solubility at 1 h ([5]; read-out: Aqueous Solubility PBS) [µM]	Metabolic Stability Clint [6] [mL/min/kg]	Metabolic Stability t1/2 ([6]; 0-45 min) [h]	IC50 ([7]; 12.5 nM HAO1, 85 μM glycolate, 2.5% DMSO, read-out: IC50) [nM]	IC50 [3] [nM]
O=C(O)c1nn[nH]c1Oc1cncc(-c2cccnc2)c1 [Example I-264, 5-([3,3′-Bipyridin]-5-yloxy)-1H-1,2,3-triazole-4-carboxylic acid]	123	105 (≈ 29.7 µg/mL)	> 10000	1.72	108 (≈ 30.4 µg/mL)	0.17	173	380									
O=C(O)c1nn[nH]c1Oc1cccc(-c2ccc(Cl)cc2)c1 [Example I-252, 5-((4′-Chloro-[1,1′-biphenyl]-3-yl)oxy)-1H-1,2,3-triazole-4-carboxylic acid]	97.1	98 (≈ 30.9 µg/mL)	2000	5.02	104 (≈ 32.8 µg/mL)	7.66	3.78	13									
Cc1cc(Oc2[nH]nnc2C(=O)O)ccc1Br [Example I-037, 5-(4-Bromo-3-methylphenoxy)-1H-1,2,3-triazole-4-carboxylic acid]	105	96.1 (≈ 28.6 µg/mL)	400	0.786	96.8 (≈ 28.9 µg/mL)	< 0.15	> 83.3	34									
O=C(O)c1nn[nH]c1Oc1cccc(-c2ccncc2)c1 [Example I-260, 5-(3-(Pyridin-4-yl)phenoxy)-1H-1,2,3-triazole-4-carboxylic acid]	114	94.4 (≈ 26.6 µg/mL)	2500	1.79	100 (≈ 28.4 µg/mL)	2.81	10.3	21	0.047								
O=C(O)c1nn[nH]c1Oc1cccc(-c2ccccc2)c1 [Example I-249, 5-([1,1′-Biphenyl]-3-yloxy)-1H-1,2,3-triazole-4-carboxylic acid]	99.2	108 (≈ 30.2 µg/mL)	2000	3.71	103 (≈ 29.1 µg/mL)	5	5.79	19									
O=C(O)c1nn[nH]c1Oc1cccc(-c2cccnc2)c1 [Example I-259, 5-(3-(Pyridin-3-yl)phenoxy)-1H-1,2,3-triazole-4-carboxylic acid]	105	96.1 (≈ 27.1 µg/mL)	2000	1.33	93.1 (≈ 26.3 µg/mL)	0.45	64.3	18	0.221								
O=C(O)c1nn[nH]c1Oc1ccc(-c2ccccn2)cc1 [Example I-261, 5-(4-(Pyridin-2-yl)phenoxy)-1H-1,2,3-triazole-4-carboxylic acid]			> 10000							111.0	105 (≈ 29.6 µg/mL)	1.328	101.5 (≈ 28.6 µg/mL)	1.58	18.301	150	
O=C(O)c1nn[nH]c1Oc1ccc(-c2ccc(F)cc2)cc1 [Example I-160, 5-((4′-Fluoro-[1,1′-biphenyl]-4-yl)oxy)-1H-1,2,3-triazole-4-carboxylic acid]	93.6	64.6 (≈ 19.3 µg/mL)	2500	2.88	101 (≈ 30.3 µg/mL)	6.99	4.14	12									
COc1cccc(-c2ccc(Oc3[nH]nnc3C(=O)O)cc2)c1 [Example I-158, 5-((3′-Methoxy-[1,1′-biphenyl]-4-yl)oxy)-1H-1,2,3-triazole-4-carboxylic acid]	92.5	101 (≈ 31.4 µg/mL)		4.77	106 (≈ 33 µg/mL)	< 0.15	> 83.3	8									5000
O=C(O)c1[nH]nnc1Oc1ccc(-c2ccc(Cl)c(Cl)c2)cc1 [Example I-171, 5-((3′,4′-Dichloro-[1,1′-biphenyl]-4-yl)oxy)-1H-1,2,3-triazole-4-carboxylic acid]	87.5	45.8 (≈ 16 µg/mL)	> 10000	1.93	96.3 (≈ 33.7 µg/mL)	14.4	2.01	10									
O=C(O)c1nn[nH]c1Oc1cncc(-c2ccccc2)c1 [Example I-262, 5-((5-Phenylpyridin-3-yl)oxy)-1H-1,2,3-triazole-4-carboxylic acid]	120	94.2 (≈ 26.6 µg/mL)	> 10000	1.63	97.2 (≈ 27.4 µg/mL)	< 0.15	> 83.3	191	0.009								
Cc1ccc(-c2cccc(Oc3[nH]nnc3C(=O)O)c2)cc1 [Example I-251, 5-((4′-Methyl-[1,1′-biphenyl]-3-yl)oxy)-1H-1,2,3-triazole-4-carboxylic acid]	98.2	101 (≈ 29.8 µg/mL)	2500	4.87	108 (≈ 31.9 µg/mL)	17.7	1.64	13									
O=C(O)c1nn[nH]c1Oc1cccc(-c2ccccc2F)c1 [Example I-254, 5-((2′-Fluoro-[1,1′-biphenyl]-3-yl)oxy)-1H-1,2,3-triazole-4-carboxylic acid]	94.4	106 (≈ 31.7 µg/mL)	2500	2.51	114 (≈ 34.1 µg/mL)	3.82	7.58	17									
O=C(O)c1nn[nH]c1Oc1ccc(-c2ccc(Br)cc2)cc1 [Example I-154, 5-((4′-Bromo-[1,1′-biphenyl]-4-yl)oxy)-1H-1,2,3-triazole-4-carboxylic acid]	98.5	29.1 (≈ 10.5 µg/mL)	> 10000	1.85	93.7 (≈ 33.7 µg/mL)	< 0.15	> 83.3	5									
CS(=O)(=O)c1ccc(-c2cccc(Oc3[nH]nnc3C(=O)O)c2)cc1 [Example I-257, 5-((4′-(Methylsulfonyl)-[1,1′-biphenyl]-3-yl)oxy)-1H-1,2,3-triazole-4-carboxylic acid]	102	89.8 (≈ 32.3 µg/mL)	2500	3.04	91.8 (≈ 33 µg/mL)	1.53	19	13	0.022								
N#Cc1cccc(-c2ccc(Oc3[nH]nnc3C(=O)O)cc2)c1 [Example I-256, 5-((3′-Cyano-[1,1′-biphenyl]-4-yl)oxy)-1H-1,2,3-triazole-4-carboxylic acid]	113	86.9 (≈ 26.6 µg/mL)		8.52	90.5 (≈ 27.7 µg/mL)	0.4	71.6	22									10000
O=C(O)c1nn[nH]c1Oc1cccc(-c2cccc(Cl)c2)c1 [Example I-253, 5-((3′-Chloro-[1,1′-biphenyl]-3-yl)oxy)-1H-1,2,3-triazole-4-carboxylic acid]	112	91.7 (≈ 29 µg/mL)	2500	1.78	102 (≈ 32.2 µg/mL)	5.51	5.26	9									

Source: patent US11389456B2, “Compounds and methods for treating oxalate-related diseases” (OxaluRx, Inc., priority 2018, dated 2022)
